# Laboratory results reported in patent US20040022850A1, “Modified release formulation” (priority 2000, published 2004).
# Assay: Solubility of the model drugs
# Assay type: physicochemical
row,SMILES,solubility
1,CCCCOC(=O)c1ccc(O)cc1 [butyl paraben],200 µg/mL
2,CC(C)n1c(/C=C/C(O)CC(O)CC(=O)O)c(-c2ccc(F)cc2)c2ccccc21 (centres unmarked) [fluvastatin],> 50000 µg/mL
